One assay concerns guinea pig right atrium. Put plainly: Atrial Test in Guinea Pigs (inhibition of histamine-stimulated heart rate, isolated right atrium). The following applies: Cavia porcellus; test compound 1 μg/ml; 10^-5 M histamine; heart rate vs control. The method, then:
Atrial Test in Guinea Pigs
The guinea pig right atrium in a spontaneous palpitation was excised, suspended in 40 ml of Krebs-Henselite solution, and a tension of 1 g was loaded between the atrium preparation and a transducer. The solution was aerated at a fixed rate at 37° C. 10^-5 M histamine was added, and the heart rate was recorded as control. A test compound was added to a concentration of 1 μg/ml and then, after 3 minutes, 10^-5 M histamine was added, and the heart rate was again recorded. The inhibitory rate (R %) compared to the control group was calculated according to the following equation: […]
A: The heart rate of the control group
B: The heart rate of the group to which the drug was administered

The next assay has as its system gastric mucosa. In words: HCl-Ethanol-Induced Ulcer Test in Rats. It counts as in vivo, rat (male SD). The following applies: dose 50 mg/kg, oral, 60 minutes before HCl-ethanol. How it is done: HCl-Ethanol-Induced Ulcer Test in Rats
Male SD rats (6 to 8 weeks old) were fasted for 24 hours before the beginning of the experiment. Each was then administered orally with 1 ml of a 60% ethanol solution containing 150 mM of hydrogen chloride. After 1 hour, the stomach was excised. Into the stomach was injected 10 ml of a 0.5% formaldehyde solution, and the stomach was fixed for 20 minutes. The injured area (mm^2) occuring on the surface of the gastric mucosa was measured, and the total injured area per rat was regarded as the injury index.
Test compounds and 0.5% CMC, as the control, were orally administered each at a dose of 0.1 ml/100 g, 60 minutes before treatment with the HCl-ethanol solution.
The ulcer formation inhibitory rate (R %) was calculated by the following equation.
A: The injury index of the control group (mm^2)
B: The injury index of the drug administered group (mm^2)

A further assay relates to gastric acid output. Put plainly: Inhibition of Gastric Secretions (Shay's method, pylorus-ligated rats). In kind it is in vivo, rat (male SD). The following applies: Rattus norvegicus, intraduodenal, 4 hours. How it is done:
Inhibition of Gastric Secretions
This test was carried out according to Shay's method [H. Shay: Gastroenterology 5, 43 (1945)] using male SD rats (5 weeks old). The rats were divided into groups, each group containing 5 rats. The animals were fasted for 24 hours before the beginning of the experiment. They were then anesthetized with ether, the abdominal region was opened, and the pylorus was ligated. A test compound suspended in a 0.5% w/v aqueous carboxymethylcellulose (CMC) solution was administered intraduodenally. After 4 hours, the rat was sacrificed by deep anesthesia with ether, and the stomach was excised. The gastric juice was removed, centrifuged for 15 minutes at 2500 rpm, and then 0.1 ml of the supernatant was taken out and titrated until the end point of neutralization with a 0.01N aqueous solution of sodium hydroxide, to determine the total gastric acidity. The amount of gastric acid secreted per hour (μEq/hr) was calculated, and the inhibition rate (R %) to the control group was calculated according to the following equation.
A: The gastric acid output of the control group (μEq/hr)
B: The amount of gastric acid output of the drug administered group (μEq/hr)

Usually inhibition stands for how much of the control response was suppressed. A high value points to strong suppression. The inhibition in vivo is the drop in the measured response relative to a control, in per cent. In the assay with guinea pig right atrium, `O=C(CSCCO)NCCCOc1cccc(CN2CCCCC2)c1` [Compound A, reference compound] yielded an inhibition at 1 µg/mL of 68%. Moreover, the “% Inhibition (ulcer formation)” value in the assay on gastric mucosa was 39%. In the assay on gastric acid output, the inhibition in vivo at 50 mg/kg is -67%.

With `O=C(CSCc1ccco1)NC/C=C\COc1cc(CN2CCCCC2)ccn1` [Compound B, reference compound], the inhibition at 1 µg/mL with guinea pig right atrium came to 99%. The “% Inhibition (ulcer formation)” value in the assay with gastric mucosa is 97%. The inhibition in vivo at 50 mg/kg in the assay on gastric acid output is -40%.

Molecule `O=C(CSCCO)NC/C=C\COc1cc(CN2CCCCC2)ccn1` [Example 1, N-[4-(4-piperidinomethyl-2-pyridyloxy)-cis-2-butenyl]-2-(2-hydroxyethylthio)acetamide] returned an inhibition at 1 µg/mL in the assay on guinea pig right atrium of 86%. The inhibition in vivo at 50 mg/kg in the assay with gastric acid output came to 63%.

Regarding `CC(=O)OCCSCC(=O)NC/C=C\COc1cc(CN2CCCCC2)ccn1` [Example 2, N-[4-(4-Piperidinomethyl-2-pyridyloxy)-cis-2-butenyl]-2-(2-acetoxyethylthio)acetamide], testing at 1 µg/mL in the assay on guinea pig right atrium gave an inhibition of 90%. Also, the “% Inhibition (ulcer formation)” value in the assay on gastric mucosa is 100%. In addition, the inhibition in vivo at 50 mg/kg with gastric acid output amounted to 52%.

With `CC(=O)OCCSCCCC(=O)NC/C=C\COc1cc(CN2CCCCC2)ccn1` [Example 6, N-[4-(4-Piperidinomethyl-2-pyridyloxy)-cis-2-butenyl]-4-(2-acetoxyethylthio)butyramide], in the assay on guinea pig right atrium, testing at 1 µg/mL gave an inhibition of 86%. The inhibition in vivo at 50 mg/kg in the assay with gastric acid output was determined as 73%.

For the molecule `CCC(=O)OCCSCC(=O)NC/C=C\COc1cc(CN2CCCCC2)ccn1` [Example 7, N-[4-(4-Piperidinomethyl-2-pyridyloxy)-cis-2-butenyl]-2-(2-propionyloxyethylthio)acetamide], the “% Inhibition (ulcer formation)” value with gastric mucosa is recorded as 61%. Moreover, in the assay on gastric acid output, the inhibition in vivo at 12.5 mg/kg was 51% and the inhibition in vivo at 25 mg/kg was 63%.

The molecule `O=C(NC/C=C\COc1cc(CN2CCCCC2)ccn1)c1cn[nH]c1` [Example 13, N-[4-(4-piperidinomethyl-2-pyridyloxy)-cis-2-butenyl]pyrazole-4-carboxamide] came in with an inhibition at 1 µg/mL in the assay on guinea pig right atrium of 84%. Moreover, the “% Inhibition (ulcer formation)” value with gastric mucosa is 87%. Besides, in the assay with gastric acid output, the inhibition in vivo at 25 mg/kg amounted to 62% and the inhibition in vivo at 50 mg/kg turned out to be 80%.

As to `Nc1n[nH]cc1C(=O)NC/C=C\COc1cc(CN2CCCCC2)ccn1` [Example 17, 3-Amino-N-[4-(4-piperidinomethyl-2-pyridyloxy) -cis-2-butenyl]pyrazole-4-carboxamide], the inhibition at 1 µg/mL with guinea pig right atrium worked out at 83%. In the assay with gastric acid output, the inhibition in vivo at 25 mg/kg is 73% and the inhibition in vivo at 50 mg/kg worked out at 71%.

On to `O=C(NC/C=C\COc1cc(CN2CCCCC2)ccn1)c1cscn1` [Example 26, N-[4-(4-Piperidinomethyl-2-pyridyloxy) -cis-2-butenyl]thiazole-4-carboxamide], for which, in the assay with guinea pig right atrium, testing at 1 µg/mL gave an inhibition of 80%.

As for `O=C(CCCSc1ncccn1)NC/C=C\COc1cc(CN2CCCCC2)ccn1` [Example 34, N-[4-(4-Piperidinomethyl-2-pyridyloxy) -cis-2-butenyl]-4-(2-pyrimidinylthio) butyramide], in the assay with guinea pig right atrium, the inhibition at 1 µg/mL was 94%. Besides, in the assay on gastric mucosa, the “% Inhibition (ulcer formation)” value was 79%. Besides, in the assay on gastric acid output, the inhibition in vivo at 12.5 mg/kg was found to be 61% and the inhibition in vivo at 25 mg/kg is 86%.

`Cc1nnc(SCCCC(=O)NC/C=C\COc2cc(CN3CCCCC3)ccn2)o1` [Example 37, N-[4-(4-Piperidinomethyl-2-pyridyloxy)-cis-2-butenyl]-4-(5-methyl-1,3,4-oxadiazol-2-ylthio)butyramide] displayed an inhibition at 1 µg/mL in the assay with guinea pig right atrium of 99%. For the same molecule, in the assay on gastric acid output, the inhibition in vivo at 50 mg/kg came to 74%.

As for `O=C(CCCSc1nc[nH]n1)NC/C=C\COc1cc(CN2CCCCC2)ccn1` [Example 41, N-[4-(4-Piperidinomethyl-2-pyridyloxy)-cis-2-butenyl]-4-(1,2,4-triazol-3-ylthio)butyramide], at 1 µg/mL the inhibition with guinea pig right atrium was 85%. Besides, in the assay with gastric acid output, the inhibition in vivo at 25 mg/kg was 61% and the inhibition in vivo at 50 mg/kg came to 76%.

Turning to `CC(C)NC(=O)NC/C=C\COc1cc(CN2CCCCC2)ccn1` [Example 48, N-[4-(4-piperidinomethyl-2-pyridyloxy) -cis-2-butenyl]-N'-isopropylurea], testing at 1 µg/mL with guinea pig right atrium gave an inhibition of 81%. In addition, in the assay with gastric mucosa, the “% Inhibition (ulcer formation)” value is reported as 78%. In the assay with gastric acid output, the inhibition in vivo at 50 mg/kg was 71%.

`O=C(NC/C=C\COc1cc(CN2CCCCC2)ccn1)NC1CCC1` [Example 58, N-Cyclobutyl-N'-[4-(4-piperidinomethyl-2-pyridyloxy) -cis-2-butenyl]urea]: the inhibition in vivo at 50 mg/kg with gastric acid output is 56%.
